Measured values reported in ChEMBL document CHEMBL1201862, “PubChem BioAssay data set” (2004).
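Interpolation was linear, between the two tested concentrations surrounding the appropriate level; five concentrations were tested over 48 hours in 96-well plates. GI50 marks 50% less growth.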 Calls of active or inactive are those of the source. No stated cut-off is given here; in the data, active = GI50 up to about 1.1 µM and inactive = higher.

Columns and labels:
Test in all cases: inhibition of tumour cell growth, NCI panel, 48 h
A549 = tested on: A549
COLO 205 = tested on: COLO 205
HCT-116 = tested on: HCT-116
HOP-62 = tested on: HOP-62
K562 = tested on: K562
MCF7 = tested on: MCF7
MDA-MB-435 = tested on: MDA-MB-435
MOLT-4 = tested on: MOLT-4
NCI-H226 = tested on: NCI-H226
NCI/ADR-RES = tested on: NCI/ADR-RES
OVCAR-8 = tested on: OVCAR-8
PC-3 = tested on: PC-3
SF-268 = tested on: SF-268
SF-295 = tested on: SF-295
SNB-19 = tested on: SNB-19
SR = tested on: SR
SW-620 = tested on: SW-620
TK-10 = tested on: TK-10
UACC-257 = tested on: UACC-257

Row | SMILES | GI50 (A549) | GI50 (COLO 205) | GI50 (HCT-116) | GI50 (HOP-62) | GI50 (K562) | GI50 (MCF7) | GI50 (MDA-MB-435) | GI50 (MOLT-4) | GI50 (NCI-H226) | GI50 (NCI/ADR-RES) | GI50 (OVCAR-8) | GI50 (PC-3) | GI50 (SF-268) | GI50 (SF-295) | GI50 (SNB-19) | GI50 (SR) | GI50 (SW-620) | GI50 (TK-10) | GI50 (UACC-257)
1 | Cc1ccc(-c2c3nc(c(-c4ccc(C)cc4)c4ccc([nH]4)c(-c4ccc(OCC5COC(C)(C)O5)cc4)c4nc(c(-c5ccc(C)cc5)c5ccc2[nH]5)C=C4)C=C3)cc1 (stereo not drawn) | > 31.6 µM (inactive) | > 31.6 µM (inactive) | > 31.6 µM (inactive) | > 31.6 µM (inactive) | > 10 µM (inactive) | > 31.6 µM (inactive) | > 31.6 µM (inactive) | > 31.6 µM (inactive) | > 31.6 µM (inactive) | > 31.6 µM (inactive) | 25.1 µM (inactive) | > 10 µM (inactive) | > 31.6 µM (inactive) | 20.5 µM (inactive) | > 31.6 µM (inactive) | > 31.6 µM (inactive) | > 31.6 µM (inactive) | 21 µM (inactive) | > 31.6 µM (inactive)
2 | c1cc(-c2ccc(-c3ccc(C4=NCCCN4)cc3)o2)ccc1C1=NCCCN1 | 8.2 µM (inactive) | 68.9 µM (inactive) | 39.6 µM (inactive) | 47.8 µM (inactive) | 40.6 µM (inactive) | 88.7 µM (inactive) | 33.5 µM (inactive) | > 100 µM (inactive) | 54 µM (inactive) | 76.7 µM (inactive) | 59.3 µM (inactive) | 79.1 µM (inactive) | > 100 µM (inactive) | 24.2 µM (inactive) | 52.6 µM (inactive) | > 100 µM (inactive) | 82.2 µM (inactive) | 50.2 µM (inactive) | 38.8 µM (inactive)
3 | CCC(NC(C)c1ccccc1)C(O)c1ccc(OCc2ccccc2)c(OCc2ccccc2)c1 (stereo not drawn) | 16 µM (inactive) | 2.23 µM (inactive) | 14.5 µM (inactive) | 17.9 µM (inactive) | 3.22 µM (inactive) | 14.3 µM (inactive) | 13.8 µM (inactive) | 14.8 µM (inactive) | 18.6 µM (inactive) | 15.8 µM (inactive) | 14.1 µM (inactive) | 13.9 µM (inactive) | 19.4 µM (inactive) | 20.4 µM (inactive) | 14.5 µM (inactive) | 2.47 µM (inactive) | 4.57 µM (inactive) | 17.8 µM (inactive) | 4.04 µM (inactive)
4 | Nc1ccc2c(c1)C(=O)c1ccccc1-2 | > 100 µM (inactive) | 91.4 µM (inactive) | > 100 µM (inactive) | > 100 µM (inactive) | 51.6 µM (inactive) | > 100 µM (inactive) | > 100 µM (inactive) | 15.7 µM (inactive) | > 100 µM (inactive) | > 100 µM (inactive) | 54.8 µM (inactive) | > 100 µM (inactive) | > 100 µM (inactive) | > 100 µM (inactive) | > 100 µM (inactive) | 23.6 µM (inactive) | 68.1 µM (inactive) | > 100 µM (inactive) | > 100 µM (inactive)
5 | C/C(CC(O)(C(F)(F)F)C(F)(F)F)=N\O | > 10 µM (inactive) | > 10 µM (inactive) | > 10 µM (inactive) | > 10 µM (inactive) | > 10 µM (inactive) | > 10 µM (inactive) | > 10 µM (inactive) | > 10 µM (inactive) | > 10 µM (inactive) | > 10 µM (inactive) | > 10 µM (inactive) | > 10 µM (inactive) | > 10 µM (inactive) | > 10 µM (inactive) | > 10 µM (inactive) | > 10 µM (inactive) | > 10 µM (inactive) | > 10 µM (inactive) | > 10 µM (inactive)
6 | Clc1ccc2oc(CCC3CCCCC3)nc2c1 | 31.6 µM (inactive) | 21.4 µM (inactive) | 31.4 µM (inactive) | 22.3 µM (inactive) | 38.2 µM (inactive) | 26.1 µM (inactive) | 27.3 µM (inactive) | 16.4 µM (inactive) | 19.2 µM (inactive) | 30.3 µM (inactive) | 44.1 µM (inactive) | 33 µM (inactive) | 64.7 µM (inactive) | 22 µM (inactive) | 42.3 µM (inactive) | 19.7 µM (inactive) | 31.8 µM (inactive) | 26.4 µM (inactive) | 30.6 µM (inactive)
7 | O=c1[nH]/c(=C/c2cccs2)c(=O)[nH]/c1=C/c1ccc(OCc2ccccc2)cn1 | 0.144 µM (active) | 0.323 µM (active) | 0.0494 µM (active) | 0.033 µM (active) | < 0.0156 µM (active) | 0.0422 µM (active) | < 0.01 µM (active) | 0.033 µM (active) | 0.312 µM (active) | 0.0266 µM (active) | 0.197 µM (active) | 0.0431 µM (active) | 0.0521 µM (active) | 0.0206 µM (active) | 0.0661 µM (active) | < 0.0142 µM (active) | 0.0361 µM (active) | 1.74 µM (inactive) | 0.116 µM (active)
